The record followed here is patent US20100048657A1, “CONTROL OF MALIGNANT CELLS PROLIFERATION THROUGH THE INHIBITION OF CASEIN KINASE 2” (CLEVELAND STATE UNIVERSITY, priority 2006, published 2010).

The subject of data set [1] is MEG-01 cells. The data set is described as follows: Thrombocytopoiesis / proplatelet formation by light, DAPI fluorescence and SEM microscopy. Type of data set: cell-based, human. The note with it: for thrombocytopoiesis: MEG-01 cells. As for the experimental part:
For observing the cells with light microscopy and to be able to provide a matrix for them to adhere, Fibronectin (FN), was used at 5 μg/cm^2 and incubated at 37° C. for 1 h, as a coat for the culture dish (6 well plates usually), as recommended by the provider (BD Biosciences, Bedford, Mass., USA) (Jiang et al., 2002).
Cell pictures were routinely taken in the laboratory of using an Olympus CK40 microscope, and the NIH Image software. High quality pictures and live imaging were taken at Cleveland Clinic Foundation Imaging Core.
DAPI staining of cultured MEG-01 cells was done with fresh cells, for live imaging.
Different concentrations of inhibitors were used, and both floating as well as fibronectin bound cells were examined. Proplatelets producing cells were observed as early as from the second day (after 24 hours), but in the third and forth days proplatelets formation was enhanced. […] When such a cell was identified, efforts were taken to focus on it and pictures were taken every 10 seconds for one day.
Cell preparation and pictures were done at the Microscopy Core Facility Cleveland Clinic. Cells were grown for 4 days with DMAT 10 μM and then collected by differential centrifugation. Cells were fixed in glutaraldehyde buffer and then further processed at the Core. The clot was prepared with platelets collected from MEG-01 cultures treated with DMAT 10 μM. Human thrombin 0.5 U/ml for 15 minutes was used to activate them. Then the clot was fixed in suspension.
Referring to FIGS. 10-15, DAPI staining of live MEG-01 cells is illustrated. Apoptotic morphology of MEG-01 cells. In FIG. 10, proplatelets formation in suspension, result of DMAT treatment (10 μM) is shown. FIG. 11 depicts proplatelets formation on Fibronectin, result of DMAT treatment (10 μM). […] This image represents the DAPI staining of cells from FIG. 11. […] FIG. 14 also illustrates phase contrast micrograph of live MEG-01 cells untreated in the 3rd to the 4th day (DMSO), 20×. FIG. 15 illustrates phase contrast micrograph of live MEG-01 cells treated with DMAT 10 μM in the 3rd to the 4th day, 20×. To summarize, FIGS. 10-15 show chromatin condensation, blebbing, cytoplasmic and nuclear fragmentation, as well as polyploidy (increase in the size of the nucleus) of MEG-01 cells following DMAT treatment.

For data set [2], the system named is MEG-01 cells. The data set can be described thus: Apoptosis assay by flow cytometry with AnnexinV-FITC and PI. It is filed as cell-based, human. Conditions: for early apoptotic cells (FL1H+, FL3H−) versus control untreated (DMSO): 72 hours; for early apoptotic cells (FL1H+, FL3H−) versus control untreated (DMSO) / total apoptotic cells (late plus early) versus control untreated (DMSO): p<0.01; for cytotoxicity: MEG-01 cells. As for the experimental part:
For induction of typical apoptosis, cells were cultured with 1 μM Staurosporine (Sigma-Aldrich, cat. # S6942) for 6 hours as recommended in the protocol from the provider. Next the Staurosporine treated cells were stained as follows: (1) with PI, (2) with AnnexinV-FITC and (3) both PI and AnnexinV-FITC in order to have the brightest controls for compensation and proper collection of the flow cytometry data. Cell necrosis was induced by heat shock (65° C. for 30 minutes). Controls for necrosis were stained in the same way as for the Staurosporine treated cells.
In order to establish the effect of the treatments on the apoptosis levels, the non-treated cells (as well as the mock control DMSO) were considered as a control, stained with PI and AnnexinV-FITC and the unstained cells, grown for the same length of treatment. The unstained control signal was subtracted by gating from the stained control and the rest of stained samples, to get only the positive stained cells signal. The stained control, both PI and AnnexinV-FITC labeled, was then used as the reference in establishing the level of apoptosis induced by the treatments.
Samples contained three cell populations of different size and shape and data was collected on logarithmic modes. AnnexinV-FITC corresponds to FL1H channel, and PI to FL3H or FL2H channels. When needed, compensation was done to remove any spillover between the channels. In addition, proper gating was done to characterize each cell population. The population of cells high on FSC and SSC, identified as large, non-granulated particles corresponds to MEG-01 cells. This population is involved in the proplatelets formation and terminal phase of megakaryocytopoiesis and in thrombocytopoiesis. MEG-01 gate is the one of interest in estimating the apoptosis level induced by the treatments.
The Apoptosis AnnexinV-FITC and PI kit from BD Biosciences, CA, USA was used. 105-106 cells were stained with 50 μg/ml propidium iodide (PI) and with 0.5 μg/ml FITC-labeled Annexin V using the staining protocol provided by the supplier. Briefly, cells were counted using a Neubauer hemacytometer, then washed and resuspended in the appropriate amount of AnnexinV-binding buffer 1× (provided in the kit), in order to have the most […] in 100 μl. Then it was used further, as the total reaction volume 100 μl (containing 10^6 cells) to which PI and AnnexinV-FITC was added. Incubation was done for 15 minutes in dark at room temperature. Samples were then analyzed immediately by flow cytometry.
With reference to FIGS. 5-9, apoptosis flow cytometry (AnnexinV-FITC corresponding to FL1H and PI corresponding to FL3H) is depicted. Analyzed and graphed values correspond to frequencies of the parent obtained with FlowJo software version 6.2, after quadrant gating. […] In FIG. 5, apoptotic cells, percentages (FL1H+, FL3H−), after 24 hours of treatment with CK2α inhibitors are depicted. Left bar represents Control untreated (DMSO), middle bar represents DMAT 20 μM treatment and right bar represents TBB 50 μM treatment. The MEG-01 cells were treated for a period of 24 hours. […] Left column represents the Control untreated (DMSO), middle bar represents DMAT 20 μM treatment and right bar represents TBB 50 μM treatment. The MEG-01 cells were treated for a period of 72 hours. […] Left bar represents the Control untreated (DMSO), middle bar represents DMAT 20 μM treatment and right bar represents TBB 50 μM treatment. The MEG-01 cells were treated for a period of 96 hours. […] FIG. 8 illustrates control untreated (DMSO) stained for both Annexin V-FITC and PI, after 24 hours.
For orientation: A flow cytometer gives signals particle by particle.

For `CN(C)c1nc2c(Br)c(Br)c(Br)c(Br)c2[nH]1` [DMAT, 2-dimethylamino-4,5,6,7-tetrabromo-1H-benzimidazole], the “cell surface phenotype by SEM” value with MEG-01 cells [1] (10 μM, 3 to 4 days) was “Pseudopodia and proplatelets formation, as well as blebbing can be observed”. In addition, the “maturation and proplatelet formation” value in the data set with MEG-01 cells [1] (10 μM, as early as from the second day, in suspension and on fibronectin) is “induced MEG-01 cells to mature and form proplatelets extensions”. In the data set with MEG-01 cells [1], the thrombocytopoiesis result is “induced thrombocytopoiesis”. Also, the apoptosis entry with MEG-01 cells [2] (10 μM, 24 hours) is listed as “induced apoptosis”. In the data set with MEG-01 cells [2] (20 μM, 24 hours), the “apoptosis versus non-treated control” value is given as “extremely significant apoptosis”. Besides, in the data set on MEG-01 cells [2] (20 μM), the “early apoptotic cells (FL1H+, FL3H−) versus control untreated (DMSO)” value is “significant apoptosis after 72 hours”. Moreover, the “total apoptotic cells (late plus early) versus control untreated (DMSO)” value in the data set on MEG-01 cells [2] (20 μM, 96 hours) is recorded as “significant apoptosis after 96 hours”. Moreover, the “apoptosis compared with TBB” value in the data set on MEG-01 cells [2] (DMAT 20 μM versus TBB 50 μM, 96 hours) is given as “induces more apoptosis at a lower concentration than the less specific inhibitor (TBB)”. In addition, the cytotoxicity result with MEG-01 cells [2] is recorded as “without being cytotoxic”.

In the case of `Brc1c(Br)c(Br)c2[nH]nnc2c1Br` [TBB, 4,5,6,7-tetrabromobenzotriazole], the thrombocytopoiesis entry with MEG-01 cells [1] is “induced thrombocytopoiesis”. In the data set with MEG-01 cells [2] (50 μM, 24 hours, p<0.05), the “apoptosis versus non-treated control” value is “significant apoptosis”. For the same molecule, in the data set on MEG-01 cells [2] (50 μM), the “early apoptotic cells (FL1H+, FL3H−) versus control untreated (DMSO)” value is “significant apoptosis after 72 hours”. Also, in the data set with MEG-01 cells [2] (50 μM, 96 hours), the “total apoptotic cells (late plus early) versus control untreated (DMSO)” value is reported as “significant apoptosis after 96 hours”. Moreover, the cytotoxicity entry in the data set with MEG-01 cells [2] is given as “without being cytotoxic”.
